Measurements published in US20220315554A1, “COMPOUNDS COMPRISING A […] LIGAND AND USE THEREOF” (priority 2019, published 2022).

Assays:
Test in all cases: biochemical
proteases [1] = molecular target: T1, proteases (Homo sapiens, UniProt P42574); conditions: Caspase-3; reference at 100 nM
T1 construct: BPS Biosciences (contract assay)

proteases [2] = molecular target: T2, proteases (Homo sapiens, UniProt P55210); conditions: Caspase-7; reference at 1 μM
T2 construct: BPS Biosciences (contract assay)
T2 sequence (P55210 whole entry): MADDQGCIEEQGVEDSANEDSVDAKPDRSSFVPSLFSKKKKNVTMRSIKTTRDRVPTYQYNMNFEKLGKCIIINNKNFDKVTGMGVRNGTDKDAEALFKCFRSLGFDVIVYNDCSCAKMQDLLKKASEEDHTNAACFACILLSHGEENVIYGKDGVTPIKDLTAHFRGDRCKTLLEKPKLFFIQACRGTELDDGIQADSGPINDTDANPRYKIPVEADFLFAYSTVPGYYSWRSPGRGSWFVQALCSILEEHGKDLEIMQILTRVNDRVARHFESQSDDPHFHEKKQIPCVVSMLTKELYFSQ

proteases [3] = molecular target: T3, proteases (Homo sapiens, UniProt O60911); conditions: Cathepsin V; reference at 100 nM
T3 construct: BPS Biosciences (contract assay)
T3 sequence (O60911 114-334): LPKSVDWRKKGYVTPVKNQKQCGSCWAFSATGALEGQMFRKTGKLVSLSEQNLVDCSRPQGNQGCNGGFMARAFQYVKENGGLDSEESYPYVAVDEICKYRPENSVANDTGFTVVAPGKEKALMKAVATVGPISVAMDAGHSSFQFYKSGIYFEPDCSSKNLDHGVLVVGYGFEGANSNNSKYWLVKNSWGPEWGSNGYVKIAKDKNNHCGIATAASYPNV

proteases [4] = molecular target: T4, proteases (Homo sapiens, UniProt P07711); conditions: Cathepsin L; reference at 1 μM
T4 construct: BPS Biosciences (contract assay)

proteases [5] = molecular target: proteases (Homo sapiens, UniProt P07858); conditions: Cathepsin B; reference at 100 nM
proteases [6] = molecular target: T5, proteases (Homo sapiens, UniProt P25774); conditions: Cathepsin S; reference at 100 nM
T5 construct: BPS Biosciences (contract assay)
T5 sequence (P25774 115-331): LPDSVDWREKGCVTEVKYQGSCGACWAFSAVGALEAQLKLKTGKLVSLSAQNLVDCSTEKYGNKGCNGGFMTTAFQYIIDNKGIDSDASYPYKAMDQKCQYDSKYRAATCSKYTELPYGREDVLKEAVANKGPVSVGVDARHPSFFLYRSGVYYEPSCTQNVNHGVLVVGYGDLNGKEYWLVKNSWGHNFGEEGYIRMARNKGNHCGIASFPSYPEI

proteases [7] = molecular target: T6, proteases (Homo sapiens, UniProt Q6V1X1); conditions: DPP8; reference at 200 μM
T6 construct: BPS Biosciences (contract assay)

proteases [8] = molecular target: proteases (Homo sapiens, UniProt Q9UHL4); conditions: DPP7; reference at 200 μM
proteases [9] = molecular target: T7, proteases (Homo sapiens, UniProt Q12884); conditions: FAP; reference at 100 nM
T7 construct: BPS Biosciences (contract assay)

proteases [10] = molecular target: T8, proteases (Homo sapiens, UniProt P55212); conditions: Caspase-6; reference at 1 μM
T8 construct: BPS Biosciences (contract assay)

proteases [11] = molecular target: T9, proteases (Homo sapiens, UniProt Q14790); conditions: Caspase-8; reference at 100 nM
T9 construct: BPS Biosciences (contract assay)
T9 sequence (Q14790 217-479): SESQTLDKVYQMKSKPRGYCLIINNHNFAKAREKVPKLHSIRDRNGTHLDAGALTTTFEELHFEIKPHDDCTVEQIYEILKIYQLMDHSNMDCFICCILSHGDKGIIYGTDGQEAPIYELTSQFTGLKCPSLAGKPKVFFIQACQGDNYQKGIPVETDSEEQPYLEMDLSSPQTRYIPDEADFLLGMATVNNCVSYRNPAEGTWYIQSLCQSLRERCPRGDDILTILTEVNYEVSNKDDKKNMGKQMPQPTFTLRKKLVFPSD

proteases [12] = molecular target: T10, proteases (Homo sapiens, UniProt Q9UBX1); conditions: Cathepsin F; reference at 1 μM
T10 construct: BPS Biosciences (contract assay)
T10 sequence (Q9UBX1 271-484): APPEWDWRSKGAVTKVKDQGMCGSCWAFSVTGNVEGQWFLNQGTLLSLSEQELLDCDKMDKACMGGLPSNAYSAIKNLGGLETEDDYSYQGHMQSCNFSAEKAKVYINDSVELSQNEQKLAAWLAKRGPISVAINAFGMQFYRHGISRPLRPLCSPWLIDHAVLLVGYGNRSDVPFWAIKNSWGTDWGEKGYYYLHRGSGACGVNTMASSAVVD

proteases [13] = molecular target: T11, proteases (Homo sapiens, UniProt O75604); conditions: Ubiquitin carboxy-terminal hydrolase 2; reference at 1 μM
T11 construct: BPS Biosciences (contract assay)

proteases [14] = molecular target: T12, proteases (Homo sapiens, UniProt P09936); conditions: Ubiquitin carboxy-terminal hydrolase L1; reference at 100 nM
T12 construct: BPS Biosciences (contract assay)

proteases [15] = molecular target: T13, proteases (Homo sapiens, UniProt P15374); conditions: Ubiquitin carboxy-terminal hydrolase L3; reference at 10 nM
T13 construct: BPS Biosciences (contract assay)

proteases [16] = molecular target: T14, proteases (Homo sapiens, UniProt P40818); conditions: Ubiquitin carboxy-terminal hydrolase 8; reference at 1 μM
T14 construct: BPS Biosciences (contract assay)
T14 sequence (P40818 whole entry): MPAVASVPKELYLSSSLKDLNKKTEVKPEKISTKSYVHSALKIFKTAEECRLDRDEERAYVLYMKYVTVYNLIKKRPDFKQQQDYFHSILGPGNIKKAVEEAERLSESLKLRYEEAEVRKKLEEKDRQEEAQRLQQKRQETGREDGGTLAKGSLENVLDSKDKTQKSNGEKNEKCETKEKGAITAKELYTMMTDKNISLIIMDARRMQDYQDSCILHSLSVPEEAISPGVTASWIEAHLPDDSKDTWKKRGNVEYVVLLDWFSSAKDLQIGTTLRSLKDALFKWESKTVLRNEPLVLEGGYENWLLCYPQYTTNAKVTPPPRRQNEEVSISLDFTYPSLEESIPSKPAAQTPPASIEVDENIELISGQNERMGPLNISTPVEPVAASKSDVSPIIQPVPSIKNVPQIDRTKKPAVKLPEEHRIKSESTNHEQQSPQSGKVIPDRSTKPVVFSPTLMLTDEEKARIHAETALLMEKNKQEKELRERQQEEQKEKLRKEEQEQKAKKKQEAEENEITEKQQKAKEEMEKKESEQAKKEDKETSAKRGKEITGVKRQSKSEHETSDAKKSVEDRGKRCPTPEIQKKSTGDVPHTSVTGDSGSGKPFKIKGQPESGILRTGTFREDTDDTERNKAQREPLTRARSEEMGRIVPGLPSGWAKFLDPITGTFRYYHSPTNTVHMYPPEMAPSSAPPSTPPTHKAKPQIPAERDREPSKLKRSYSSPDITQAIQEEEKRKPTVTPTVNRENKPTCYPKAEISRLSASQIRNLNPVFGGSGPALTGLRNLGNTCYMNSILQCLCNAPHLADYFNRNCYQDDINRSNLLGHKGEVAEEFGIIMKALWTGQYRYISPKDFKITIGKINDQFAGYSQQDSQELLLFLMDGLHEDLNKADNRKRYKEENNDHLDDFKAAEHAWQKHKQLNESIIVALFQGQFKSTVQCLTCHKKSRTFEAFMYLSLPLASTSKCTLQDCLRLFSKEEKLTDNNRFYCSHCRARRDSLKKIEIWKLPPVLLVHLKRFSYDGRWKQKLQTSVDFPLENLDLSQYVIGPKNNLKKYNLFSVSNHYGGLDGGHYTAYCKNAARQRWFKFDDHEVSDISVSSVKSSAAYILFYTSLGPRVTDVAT

proteases [17] = molecular target: T15, proteases (Homo sapiens, UniProt P45974); conditions: Ubiquitin carboxy-terminal hydrolase 5; reference at 1 μM
T15 construct: BPS Biosciences (contract assay)

proteases [18] = molecular target: T16, proteases (Homo sapiens, UniProt P54252); conditions: Ataxin3; reference at 10 μM
T16 construct: BPS Biosciences (contract assay)
T16 sequence (P54252 whole entry): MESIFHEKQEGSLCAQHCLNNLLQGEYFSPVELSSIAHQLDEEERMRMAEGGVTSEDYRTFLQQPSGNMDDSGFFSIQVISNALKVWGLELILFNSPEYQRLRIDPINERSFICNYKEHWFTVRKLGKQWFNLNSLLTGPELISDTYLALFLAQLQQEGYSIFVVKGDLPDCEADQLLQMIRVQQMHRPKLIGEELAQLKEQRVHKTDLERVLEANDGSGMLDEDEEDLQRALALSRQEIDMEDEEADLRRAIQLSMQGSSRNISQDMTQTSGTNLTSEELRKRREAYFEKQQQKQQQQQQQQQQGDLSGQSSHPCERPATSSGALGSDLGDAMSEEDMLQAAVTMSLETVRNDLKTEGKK

proteases [19] = molecular target: T17, proteases (Homo sapiens, UniProt P54578); conditions: Ubiquitin carboxy-terminal hydrolase 14; reference at 100 nM
T17 construct: BPS Biosciences (contract assay)

proteases [20] = molecular target: T18, proteases (Homo sapiens, UniProt Q14694); conditions: Ubiquitin carboxy-terminal hydrolase 10; reference at 1 μM
T18 construct: BPS Biosciences (contract assay)
T18 sequence (Q14694 whole entry): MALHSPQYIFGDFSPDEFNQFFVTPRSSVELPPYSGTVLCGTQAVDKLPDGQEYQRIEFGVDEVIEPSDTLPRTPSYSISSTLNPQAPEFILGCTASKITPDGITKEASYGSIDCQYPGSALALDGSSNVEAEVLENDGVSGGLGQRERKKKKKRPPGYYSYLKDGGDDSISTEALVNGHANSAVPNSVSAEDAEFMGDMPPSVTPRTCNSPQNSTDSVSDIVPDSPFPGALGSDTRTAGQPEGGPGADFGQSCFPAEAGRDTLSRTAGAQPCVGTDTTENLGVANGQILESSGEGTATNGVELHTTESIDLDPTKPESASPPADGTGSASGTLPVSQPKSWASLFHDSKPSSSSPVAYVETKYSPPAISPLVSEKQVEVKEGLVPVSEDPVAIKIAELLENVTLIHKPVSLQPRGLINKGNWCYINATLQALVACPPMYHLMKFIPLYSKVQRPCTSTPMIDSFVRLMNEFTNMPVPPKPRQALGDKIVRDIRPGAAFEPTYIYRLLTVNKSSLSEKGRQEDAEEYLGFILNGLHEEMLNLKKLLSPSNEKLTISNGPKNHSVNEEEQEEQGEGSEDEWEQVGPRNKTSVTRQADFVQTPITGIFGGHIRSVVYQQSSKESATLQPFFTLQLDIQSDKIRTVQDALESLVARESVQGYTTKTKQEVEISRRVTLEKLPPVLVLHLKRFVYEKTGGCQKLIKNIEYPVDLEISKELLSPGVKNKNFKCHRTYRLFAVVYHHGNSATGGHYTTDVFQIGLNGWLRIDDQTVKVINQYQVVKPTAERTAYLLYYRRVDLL

proteases [21] = molecular target: T19, proteases (Homo sapiens, UniProt Q8N6M0); conditions: Deubiquitinase OTUD6B; reference at 1 μM
T19 construct: BPS Biosciences (contract assay)

proteases [22] = molecular target: T20, proteases (Homo sapiens, UniProt Q93009); conditions: Ubiquitin carboxy-terminal hydrolase 7; reference at 1 μM
T20 construct: BPS Biosciences (contract assay)
T20 sequence (Q93009 whole entry): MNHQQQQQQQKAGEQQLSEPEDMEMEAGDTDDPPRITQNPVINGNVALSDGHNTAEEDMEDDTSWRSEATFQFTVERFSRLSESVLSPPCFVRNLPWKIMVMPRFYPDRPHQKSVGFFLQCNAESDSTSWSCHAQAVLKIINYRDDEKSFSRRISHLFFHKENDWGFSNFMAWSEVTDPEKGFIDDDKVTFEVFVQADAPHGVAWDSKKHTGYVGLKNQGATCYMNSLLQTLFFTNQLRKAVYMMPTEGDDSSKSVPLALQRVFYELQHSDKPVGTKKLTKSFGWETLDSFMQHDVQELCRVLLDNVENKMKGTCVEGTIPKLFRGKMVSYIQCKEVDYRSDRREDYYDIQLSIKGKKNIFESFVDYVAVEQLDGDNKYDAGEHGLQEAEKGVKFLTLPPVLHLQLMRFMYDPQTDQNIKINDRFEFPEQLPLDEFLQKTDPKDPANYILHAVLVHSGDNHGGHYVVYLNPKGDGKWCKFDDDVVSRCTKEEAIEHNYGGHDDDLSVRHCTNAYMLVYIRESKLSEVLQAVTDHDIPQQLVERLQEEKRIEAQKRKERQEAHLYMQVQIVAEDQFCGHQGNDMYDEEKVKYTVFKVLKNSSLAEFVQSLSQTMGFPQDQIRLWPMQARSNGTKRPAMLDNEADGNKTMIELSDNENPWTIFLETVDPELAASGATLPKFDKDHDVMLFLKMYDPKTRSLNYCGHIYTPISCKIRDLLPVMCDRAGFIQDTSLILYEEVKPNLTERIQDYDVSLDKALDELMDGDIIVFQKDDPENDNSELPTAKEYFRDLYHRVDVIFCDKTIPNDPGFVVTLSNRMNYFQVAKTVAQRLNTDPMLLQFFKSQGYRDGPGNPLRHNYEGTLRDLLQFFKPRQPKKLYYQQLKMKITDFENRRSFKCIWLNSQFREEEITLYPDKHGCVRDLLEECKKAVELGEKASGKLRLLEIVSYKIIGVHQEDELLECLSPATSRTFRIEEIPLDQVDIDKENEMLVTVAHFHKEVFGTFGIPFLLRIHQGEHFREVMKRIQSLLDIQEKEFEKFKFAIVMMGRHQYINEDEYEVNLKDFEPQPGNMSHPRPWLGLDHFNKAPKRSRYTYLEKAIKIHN

T1 sequence (P42574 29-277): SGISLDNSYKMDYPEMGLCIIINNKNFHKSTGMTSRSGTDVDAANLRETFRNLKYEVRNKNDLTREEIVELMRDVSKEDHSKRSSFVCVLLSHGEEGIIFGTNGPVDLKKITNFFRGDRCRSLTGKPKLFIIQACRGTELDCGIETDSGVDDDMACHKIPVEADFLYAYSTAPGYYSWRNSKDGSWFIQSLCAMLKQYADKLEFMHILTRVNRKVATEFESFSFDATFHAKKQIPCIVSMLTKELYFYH

Compound: COC[C@@H]1CCCN1S(=O)(=O)c1ccc2c(c1)C(=O)C(=O)N2 [Caspase 3/7 Inhibitor I]
- Percentage inhibition (%) Reference (proteases [1]): 89%
- Percentage inhibition (%) Reference (proteases [2]): 92%

Compound: CC(C)C[C@H](NC(=O)[C@H]1O[C@@H]1C(=O)O)C(=O)NCCCCN=C(N)N [E-64]
- Percentage inhibition (%) Reference (proteases [3]): 83%
- Percentage inhibition (%) Reference (proteases [4]): 97%
- Percentage inhibition (%) Reference (proteases [5]): 97%
- Percentage inhibition (%) Reference (proteases [6]): 91%

Compound: N#Cc1ccc(NCCNCC(=O)N2N=CCC2C#N)nc1 (stereo not shown) [KR62436]
- Percentage inhibition (%) Reference (proteases [7]): 96%
- Percentage inhibition (%) Reference (proteases [8]): 83%

Compound: N#C[C@@H]1CC(F)(F)CN1C(=O)CNC(=O)c1ccnc2ccccc12 [SP-13786]
- Percentage inhibition (%) Reference (proteases [9]): 100%

Compound: Caspase 8 Inhibitor I
- Percentage inhibition (%) Reference (proteases [10]): 94%
- Percentage inhibition (%) Reference (proteases [11]): 87%

Compound: Cystatin C
- Percentage inhibition (%) Reference (proteases [12]): 74%

Compound: Ub-Aldehyde
- Percentage inhibition (%) Reference (proteases [13]): 91%
- Percentage inhibition (%) Reference (proteases [14]): 92%
- Percentage inhibition (%) Reference (proteases [15]): 95%
- Percentage inhibition (%) Reference (proteases [16]): 73%
- Percentage inhibition (%) Reference (proteases [17]): 84%
- Percentage inhibition (%) Reference (proteases [18]): 77%
- Percentage inhibition (%) Reference (proteases [19]): 96%
- Percentage inhibition (%) Reference (proteases [20]): 82%
- Percentage inhibition (%) Reference (proteases [21]): 97%
- Percentage inhibition (%) Reference (proteases [22]): 95%
